Reference: patent publication US7973056B2, “Triazole derivative or salt thereof” (Fujifilm Finechemicals Co., Ltd, priority 2008, dated 2011)
≈ marks a conversion by molar mass, not a printed value.

System: Aspergillus niger ATCC 8740
Test: Antifungal activity test (in vitro), MIC
Assay type: cell-based
Details: ATCC8740
Method: Minimum inhibitory concentration (MIC) of each of the compounds obtained in Examples 1 to 12 was measured for respective fungi at MOS Pharm Service, by the methods described in Antimicrobial Agents and Chemotherapy, vol. 3, pp. 40-48 (1973), Antimicrobial Agents and Chemotherapy, vol. 33, pp. 215-222 (1989) and Antimicrobial Agents and Chemotherapy, vol. 38, pp. 2362-2368 (1994). The measuring conditions are shown in the following. In this case, Voriconazol was used as a comparative compound. Aspergillus niger ATCC 8740; Cultured at 28° C. for 2 days using potato dextrose broth, and this was used as a cell suspension. Each of the compounds of the invention was adjusted to a concentration of 1% by weight using dimethyl sulfoxide (DMSO) and a medium similar to the respective medium used in the above-mentioned fungal culture, having a final concentration of from 0.001 to 100 μg/ml, was prepared. Each of the inoculation cell suspensions prepared by the above-mentioned methods was inoculated onto this agar plate. […] In this connection, Voriconazol was used as the comparative compound C-1.

Question: How did the MIC turn out when C[C@@H](N1CC=C(c2ccccn2)CC1)[C@](O)(Cn1cncn1)c1ccc(F)cc1F [I-3, (2R,3R)-2-(2,4-difluorophenyl)-3-(3′,6′-dihydro-2,4′-bipyridin-1′(2′H)-yl)-1-(1,2,4-triazol-1-yl)butan-2-ol] was run?
Answer: 1 µg/mL (≈ 2.43 µM)
